pIC50: −log10 of the molar value. Where two headings read alike, the source gives them in different places.
Experiments:
group IVa PLA2 (cPLA2) = group IVa PLA2 (cPLA2) (Homo sapiens (Human), UniProt P47712); assay: In vitro cPLA2 enzyme activity assay; assay type: biochemical
Description: Some of the compounds above were tested using an in vitro cPLA2 enzyme activity assay.
Assay for cPLA2 activity was performed by the use of sonicated vesicles of 1-palmitoyl-2-arachidonoyl-sn-glycerol-3-phosphorylcholine (100 μM) containing 100,000 cpm of 1-palmitoyl-2-[1 14C]arachidonoylsn-glycerol-3-phosphorylcholine in 100 mM Hepes, pH 7.5, 80 μM Ca2, 2 mM dithiothreitol, and 0.1 mg/ml BSA as described. Following a […] incubation at 37° C., the reaction was terminated (derived from Wijkander et al). The lower phase was separated by thin layer chromatography, and the spot corresponding to free [1-14C]arachidonic acid was visualized by digital imaging and quantified with a PhosphorImager (Fuji Instruments). The source of cPLA2 enzyme was recombinant overexpression of the human gene for group IVa PLA2 in baculovirus insect cell expression system, as described in Abdullah et al. • Wijkander, J., and Sundler, R. (1991) Eur. J. Biochem. 202, 873-880 • Abdullah, K., et al. (1995) Human cytosolic phospholipase A2 expressed in insect cells is extensively phosphorylated on Ser-505. Biochim Biophys Acta. 1995 May 11; 1244(1):157-64.

SW982 cells = assay: AA release assay in SW982 cells, IL-1B stimulation; assay type: cell-based; details: Homo sapiens
Description: (§1) The Cell Culture SW982 model cell line at a confluent or spheroid state (Wada Y, 2005) was used since gene expression and generation of proinflammatory cytokines resemble RA-derived synovial fibroblast-like cells.
[…] […] IC50 is evaluated from dose-response inhibitions curves.

PGE2 = assay: PGE2-assay (EIA kit detection); assay type: cell-based
Description: as §1
Samples and controls were slowly thawed and diluted (between 1:1 and 1:2500) in the standard diluent. The maximal dilution was 1:10 for one step. That is why several intermediate dilutions were prepared. In the beginning all values were determined from duplicates. After having minimized technical errors, samples were only analyzed as individuals. All further steps, except for some minor corrections, were performed according to the manufacturer's recommendations as can be found in the manual of the EIA kit. In order to optimize the results, the incubation time of the alkaline phosphatase substrate was prolonged by 15 minutes. During the incubation, the plates were kept in the dark. An example of the arrangements of the samples and controls is illustrated in the appendix. The read-out was carried out with a Multiscan plate reader (Ascent Labsystems) at wavelengths of 414 and 595 nm after 10 seconds shaking at 120 rpm. The corresponding software to obtain the data was the Ascent software for Multiscan, Version 2.4.1.
Data were processed using Microsoft Office Excel 2003 and SigmaPlot 10.0.

[1] = recombinant human group IVa PLA2, vesicle assay, 37° C., read-out: Enzyme Assay IC 50
[2] = 1 h preincubation, IL-1B stimulation, time not given
[3] = read-out: cPLA2 in vitro assay IC50

group IVa PLA2 (cPLA2), sequence (P47712 whole entry): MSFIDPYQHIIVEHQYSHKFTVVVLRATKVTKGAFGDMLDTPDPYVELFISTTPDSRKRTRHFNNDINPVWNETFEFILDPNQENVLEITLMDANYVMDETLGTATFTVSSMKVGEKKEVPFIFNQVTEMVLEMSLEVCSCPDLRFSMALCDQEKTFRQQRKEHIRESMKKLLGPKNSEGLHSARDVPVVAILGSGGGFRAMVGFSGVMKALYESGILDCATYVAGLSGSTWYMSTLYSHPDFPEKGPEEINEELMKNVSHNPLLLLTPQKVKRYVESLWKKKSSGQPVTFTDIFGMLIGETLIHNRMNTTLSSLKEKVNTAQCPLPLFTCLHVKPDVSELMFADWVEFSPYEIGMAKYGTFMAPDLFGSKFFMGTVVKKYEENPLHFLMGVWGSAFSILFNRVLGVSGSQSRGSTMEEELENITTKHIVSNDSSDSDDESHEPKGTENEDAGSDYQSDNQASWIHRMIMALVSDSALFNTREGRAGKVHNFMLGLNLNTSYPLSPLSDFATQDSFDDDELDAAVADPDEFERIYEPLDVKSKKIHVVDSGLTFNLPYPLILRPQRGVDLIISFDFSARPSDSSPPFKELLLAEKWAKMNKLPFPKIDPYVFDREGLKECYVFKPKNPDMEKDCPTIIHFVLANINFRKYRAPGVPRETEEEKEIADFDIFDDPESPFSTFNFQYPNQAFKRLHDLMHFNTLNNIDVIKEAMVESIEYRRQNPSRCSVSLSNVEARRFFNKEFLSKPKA

Row | Compound | pIC50 (group IVa PLA2 (cPLA2); [1]) | pIC50 (SW982 cells; [2]) | pIC50 (group IVa PLA2 (cPLA2); [3]) | inhibition at 10 µM (PGE2) [%] | inhibition at 30 µM (PGE2) [%] | also measured
1 | O=C(CCCCc1ccccc1)c1nccs1 [GK147, 5-Phenyl-1-(thiazol-2-yl)pentan-1-one] | 5.52 |  |  |  |  | 
2 | CCCCCCOc1ccc(CCC(=O)c2nccs2)cc1 [GK150, 3-(4-(Hexyloxy)phenyl)-1-(thiazol-2-yl)propan-1-one] |  | 5.24 |  |  |  | 
3 | CCOC(=O)c1csc(C(=O)CCCCc2ccccc2)n1 [GK152, Ethyl 2-(5-phenylpentanoyl)thiazole-4-carboxylate] |  |  | < 5.30 | 30 | 31 | pIC50 (SW982 cells; (2 h)): 5.13; pIC50 (SW982 cells; (4 h)): < 4.60; inhibition at 0.1 µM (PGE2; 0.1 uM): 41%; inhibition at 3 µM (PGE2): 38%
4 | CCCCCCCCc1ccc(OCCCC(=O)c2nccs2)cc1 [GK154, 4-(4-Octylphenoxy)-1-(thiazol-2-yl)butan-1-one] | 5.44 |  |  |  |  | 
5 | CCCCCCOc1ccc(CCCC(F)C(=O)c2nccs2)cc1 (stereo not drawn) [GK156, 2-Fluoro-5-(4-(hexyloxy)phenyl)-1-(thiazol-2-yl)pentan-1-one] | 5.43 |  |  |  |  | 
6 | O=C(CCCCc1ccccc1)c1nc2ccccc2s1 [GK159] |  |  | < 5.30 | 23 | 10 | pIC50 (SW982 cells; (2 h)): > 5.70; pIC50 (SW982 cells; (4 h)): ~4.60; inhibition at 0.3 µM (PGE2; 0.3 uM): 76%; inhibition at 3 µM (PGE2): 18%
7 | CCC(=O)c1nc(C(=O)O)cs1 [GK160] |  | 5.31 | 5.14 | 12 | 30 | 
8 | O=C(CCCCc1ccc2ccccc2c1)c1nc2ccccc2s1 [GK181] |  | 5.85 |  | 16.3 | 22.5 | 
9 | CCc1ccc(OCC(=O)c2nccs2)cc1 [GK185] |  | 5.55 | 5.70 |  |  | 
